Measured values as given in patent US20250304582A1, “Bicyclic Ureas As Kinase Inhibitors” (Incyte Corporation, priority 2024, published 2025).

Experiments:
[1] = molecular target: T1, catalytic domain (JH1, amino acids 826-1132) of human JAK2 (Homo sapiens, UniProt O60674); test: JAK2 LanthaScreen JH1 Binding Assay; conditions: 50 nM fluorescent JAK2-JH1 tracer, 2 hours at 25° C.; read-out: JH1 BIND (EX. A)
T1 construct: catalytic domain (JH1, amino acids 826-1132) of human JAK2; FLAG (N); purchased Carna Biosciences 08-445-20N; host or cells: baculovirus expression system
T1 sequence (O60674 826-1132): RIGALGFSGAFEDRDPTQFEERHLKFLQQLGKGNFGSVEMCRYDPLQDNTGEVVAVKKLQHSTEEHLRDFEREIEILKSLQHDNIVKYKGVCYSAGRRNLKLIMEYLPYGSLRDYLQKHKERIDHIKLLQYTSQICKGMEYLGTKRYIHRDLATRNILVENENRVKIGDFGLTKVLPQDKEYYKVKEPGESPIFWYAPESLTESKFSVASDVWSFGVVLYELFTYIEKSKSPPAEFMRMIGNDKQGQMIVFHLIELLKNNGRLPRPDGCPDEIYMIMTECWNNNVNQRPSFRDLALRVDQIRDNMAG
Method: Example A. JAK2 LanthaScreen JH1 Binding Assay
JAK2 JH1 binding assay utilizes catalytic domain (JH1, amino acids 826-1132) of human JAK2 expressed as N-terminal FLAG-tagged, biotinylated protein in a baculovirus expression system (Carna Biosciences, Product #08-445-20N). The assay was conducted in black 384-well polystyrene plates in a final reaction volume of 20 μL. JAK2 JH1 (1.5 nM) was incubated with compounds (100 nL serially diluted in DMSO) in the presence of 50 nM fluorescent JAK2-JH1 tracer and 0.5 nM Streptavidin-Tb cryptate (Cisbio Part #610SATLB) in assay buffer (50 mM Tris, pH=7.5, 10 mM MgCl2, 0.01% Brij-35, 0.1% BSA, 1 mM EGTA, 5% Glycerol and 5 mM DTT). Non-specific binding was accessed in the presence of 2 mM ATP. After incubation for 2 hours at 25° C., LanthaScreen signals were read on a PHERAstar FS plate reader (BMG LABTECH). Data was analyzed with IDBS Xlfit and GraphPad Prism 5.0 software using a four parameter dose response curve to determine IC50 for each compound.

[2] = molecular target: T2, pseudo-kinase domain (JH2, amino-acids 536-812) of human Wild Type JAK2 (Homo sapiens, UniProt O60674, F794H/W659A/W777A); test: JAK2 LanthaScreen JH2-WT Binding Assay; conditions: 50 nM Fluorescent JAK2-JH2 Tracer, 1 hour at 25° C.; read-out: JH2 BIND WT (EX. B)
T2 construct: JH2, amino-acids 536-812 with 3 surface mutations W659A, W777A, F794H; His (C); purchased BPS Bioscience 79463; host or cells: baculovirus expression system
T2 sequence (O60674 536-812 W659A/W777A/F794H): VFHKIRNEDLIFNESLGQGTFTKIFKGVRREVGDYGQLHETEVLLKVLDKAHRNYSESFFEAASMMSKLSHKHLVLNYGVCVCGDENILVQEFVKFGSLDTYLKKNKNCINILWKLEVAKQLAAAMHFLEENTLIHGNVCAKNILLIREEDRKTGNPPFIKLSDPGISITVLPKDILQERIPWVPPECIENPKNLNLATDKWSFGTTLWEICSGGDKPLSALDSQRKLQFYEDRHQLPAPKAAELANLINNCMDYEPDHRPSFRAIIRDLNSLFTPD
Method: Example B. JAK2 LanthaScreen JH2-WT Binding Assay
(§1) JAK2 JH2-WT binding assay utilizes pseudo-kinase domain (JH2, amino-acids 536-812 with 3 surface mutations W659A, W777A, F794H) of human Wild Type JAK2 expressed as C-terminal His-Avi-tagged, biotinylated protein in a baculovirus expression system (BPS Bioscience, Catalog #79463). The assay was conducted in black 384-well polystyrene plates in a final reaction volume of 20 μL. JAK2 JH2-WT (0.145 nM) was incubated with compounds (100 nL serially diluted in DMSO) in the presence of 50 nM Fluorescent JAK2-JH2 Tracer (MedChem Express Catalog #HY-102055) and 0.25 nM Streptavidin-Tb cryptate (Cisbio Part #610SATLB) in assay buffer (50 mM Tris, pH=7.5, 10 mM MgCl2, 0.01% Brij-35, 0.1% BSA, 1 mM EGTA, 5% Glycerol and 5 mM DTT). Non-specific binding was accessed in the presence of 2 mM ATP. After incubation for 1 hour at 25° C., LanthaScreen signals were read on a PHERAstar FS plate reader (BMG LABTECH). Data was analyzed with IDBS Xlfit and GraphPad Prism 5.0 software using a four parameter dose response curve to determine IC50 for each compound.

[3] = molecular target: T3, pseudo-kinase domain (JH2, amino-acids 536-812) of human V617F mutant JAK2 (Homo sapiens, UniProt O60674, F794H/V617F/W659A/W777A); test: JAK2 LanthaScreen JH2-V617F Binding Assay; conditions: 50 nM Fluorescent JAK2-JH2 Tracer, 1 hour at 25° C.; read-out: JH2 BIND V617F (Ex. C)
T3 construct: JH2, amino-acids 536-812 with 3 surface mutations W659A, W777A, F794H; His (C); purchased BPS Bioscience 79498; host or cells: baculovirus expression system
T3 sequence (O60674 536-812 V617F/W659A/W777A/F794H): as the sequence (O60674 536-812 W659A/W777A/F794H) above, with V82F counted along it
Method: Example C. JAK2 LanthaScreen JH2-V617F Binding Assay
as §1, with “JH2-V617F” for “JH2-WT”, “V617F mutant” for “Wild Type”, “#79498).” for “#79463).”, “JH2-V617F (0.26” for “JH2-WT (0.145”

[4] = molecular target: T4, catalytic domain (JH1, amino acids 808-1132) of human JAK2 (Homo sapiens, UniProt O60674); test: JAK2 HTRF Enzyme Activity Assay; assay type: biochemical; conditions: ATP (30 μM or 1 mM; not stated which for the table), 60 minutes at 25° C.; read-out: JAK2 HTRF (Ex. D)
T4 construct: catalytic domain (JH1, amino acids 808-1132) of human JAK2; His (N); purchased BPS Bioscience 40450; host or cells: baculovirus expression system
T4 sequence (O60674 808-1132): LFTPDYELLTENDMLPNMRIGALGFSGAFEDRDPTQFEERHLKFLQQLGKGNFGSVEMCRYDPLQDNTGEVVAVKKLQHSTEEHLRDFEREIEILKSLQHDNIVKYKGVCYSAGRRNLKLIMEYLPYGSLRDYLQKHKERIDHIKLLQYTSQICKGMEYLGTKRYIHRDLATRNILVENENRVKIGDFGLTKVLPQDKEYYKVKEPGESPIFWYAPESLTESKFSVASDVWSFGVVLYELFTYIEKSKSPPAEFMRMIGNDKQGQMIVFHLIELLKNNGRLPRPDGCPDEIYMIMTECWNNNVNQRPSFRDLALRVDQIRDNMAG
Method: Example D. JAK2 HTRF Enzyme Activity Assay
JAK2 enzyme activity assays utilize catalytic domain (JH1, amino acids 808-1132) of human JAK2 expressed as N-terminal His-tagged protein in a baculovirus expression system (BPS Bioscience, Catalog #40450). The assays was conducted in black 384-well polystyrene plates in a final reaction volume of 20 μL. JAK2 (0.015 nM) was incubated with compounds (100 nL serially diluted in DMSO) in the presence of ATP (30 μM or 1 mM) and 500 nM Biotin-labeled EQEDEPEGDYFEWLE (SEQ ID NO.: 1) peptide (BioSource International, custom synthesis) in assay buffer (50 mM Tris, pH=7.5, 10 mM MgCl2, 0.01% Brij-35, 0.1% BSA, 1 mM EGTA, 5% Glycerol and 5 mM DTT) for 60 minutes at 25° C. The reactions were stopped by the addition of 10 μL of detection buffer (50 mM Tris, pH 7.8, 0.5 mg/mL BSA, 150 mM NaCl), supplemented with EDTA, LANCE Eu-W1024 anti-phosphotyrosine (PY20), (PerkinElmer, Catalog #AD0067) and Streptavidin SureLight APC (PerkinElmer Catalog #CR130-100), for a final concentration of 15 mM, 1.5 nM and 75 nM, respectively. HTRF signals were read after 30 minutes incubation at room temperature on a PHERAstar FS plate reader (BMG LABTECH). Data was analyzed with TDBS Xlfit and GraphPad Prism 5.0 software using a four parameter dose response curve to determine IC50 for each compound.

Structure (SMILES)	IC50 [1]	IC50 [2]	IC50 [3]	IC50 [4]
[2H]C([2H])([2H])n1c(=O)n([C@@H]2CC[C@@H](NC(=O)OC)C2)c2cc(Nc3cc(C(C)(C)OC)c4cccc(C(F)(F)F)c4n3)ncc21 [Example 17, Methyl ((1R,3R)-3-(6-((4-(2-methoxypropan-2-yl)-8-(trifluoromethyl)quinolin-2-yl)amino)-3-(methyl-d3)-2-oxo-2,3-dihydro-1H-imidazo[4,5-c]pyridin-1-yl)cyclopentyl)carbamate]	> 1000 nM	≤ 10 nM	≤ 10 nM	> 1000 nM
[2H]C([2H])([2H])n1c(=O)n([C@@H]2CC[C@@H](NC(=O)OC)C2)c2cc(Nc3cc(CC#N)c4cccc(C(F)(F)F)c4n3)ncc21 [Example 18, Methyl ((1R,3R)-3-(6-((4-(cyanomethyl)-8-(trifluoromethyl)quinolin-2-yl)amino)-3-(methyl-d3)-2-oxo-2,3-dihydro-1H-imidazo[4,5-c]pyridin-1-yl)cyclopentyl)carbamate]	500 to 1000 nM	≤ 10 nM	≤ 10 nM	500 to 1000 nM
[2H]C([2H])([2H])n1c(=O)n([C@@H]2CC[C@@H](NC(=O)OC)C2)c2cc(Nc3cc(C(C)(C)C#N)c4cccc(C(F)(F)F)c4n3)ncc21 [Example 19, Methyl ((1R,3R)-3-(6-((4-(2-cyanopropan-2-yl)-8-(trifluoromethyl)quinolin-2-yl)amino)-3-(methyl-d3)-2-oxo-2,3-dihydro-1H-imidazo[4,5-c]pyridin-1-yl)cyclopentyl)carbamate]	> 1000 nM	≤ 10 nM	≤ 10 nM	> 1000 nM
[2H]C([2H])([2H])n1c(=O)n([C@@H]2CC[C@@H](NC(=O)OC)C2)c2cc(Nc3cc(C(C)(C)O)c4cc(Cl)cc(C(F)(F)F)c4n3)ncc21 [Example 20, Methyl ((1R,3R)-3-(6-((6-chloro-4-(2-hydroxypropan-2-yl)-8-(trifluoromethyl)quinolin-2-yl)amino)-3-(methyl-d3)-2-oxo-2,3-dihydro-1H-imidazo[4,5-c]pyridin-1-yl)cyclopentyl)carbamate]	> 1000 nM	≤ 10 nM	≤ 10 nM	> 1000 nM
COC(=O)N[C@@H]1CC[C@@H](n2c(=O)n(C)c3cnc(Nc4cc(Cl)c5cccc(C(F)(F)F)c5n4)cc32)C1 [Example 21, Methyl ((1R,3R)-3-(6-((4-chloro-8-(trifluoromethyl)quinolin-2-yl)amino)-3-methyl-2-oxo-2,3-dihydro-1H-imidazo[4,5-c]pyridin-1-yl)cyclopentyl)carbamate]	> 1000 nM	≤ 10 nM	≤ 10 nM	> 1000 nM
[2H]C([2H])([2H])n1c(=O)n([C@@H]2CC[C@@H](NC(=O)OC)C2)c2cc(Nc3cc(NC(=O)COC)c4cccc(C(F)(F)F)c4n3)ncc21 [Example 22, Methyl ((1R,3R)-3-(6-((4-(2-methoxyacetamido)-8-(trifluoromethyl)quinolin-2-yl)amino)-3-(methyl-d3)-2-oxo-2,3-dihydro-1H-imidazo[4,5-c]pyridin-1-yl)cyclopentyl)carbamate]	> 1000 nM	≤ 10 nM	≤ 10 nM	> 1000 nM
[2H]C([2H])([2H])n1c(=O)n([C@@H]2CC[C@@H](NC(=O)OC)C2)c2cc(Nc3cc(NS(C)(=O)=O)c4cccc(C(F)(F)F)c4n3)ncc21 [Example 23, Methyl ((1R,3R)-3-(3-(methyl-d3)-6-((4-(methylsulfonamido)-8-(trifluoromethyl)quinolin-2-yl)amino)-2-oxo-2,3-dihydro-1H-imidazo[4,5-c]pyridin-1-yl)cyclopentyl)carbamate]	> 1000 nM	10 to 100 nM	10 to 100 nM	> 1000 nM
COC(=O)N[C@@H]1CC[C@@H](n2c(=O)n(C)c3cnc(Nc4ccc5cccc(Br)c5n4)cc32)C1 [Example 24, Methyl ((1R,3R)-3-(6-((8-bromoquinolin-2-yl)amino)-3-methyl-2-oxo-2,3-dihydro-1H-imidazo[4,5-c]pyridin-1-yl)cyclopentyl)carbamate]	> 1000 nM	≤ 10 nM	≤ 10 nM	> 1000 nM
COC(=O)N[C@@H]1CC[C@@H](n2c(=O)n(C)c3cnc(Nc4ccc5cc(Cl)cc(C(F)(F)F)c5n4)cc32)C1 [Example 25, Methyl ((1R,3R)-3-(6-((6-chloro-8-(trifluoromethyl)quinolin-2-yl)amino)-3-methyl-2-oxo-2,3-dihydro-1H-imidazo[4,5-c]pyridin-1-yl)cyclopentyl)carbamate]	> 1000 nM	≤ 10 nM	≤ 10 nM	> 1000 nM
[2H]C([2H])([2H])n1c(=O)n([C@@H]2CC[C@@H](NC(=O)OC)C2)c2cc(Nc3ccc4cc(C#N)cc(C(F)(F)F)c4n3)ncc21 [Example 26, Methyl ((1R,3R)-3-(6-((6-cyano-8-(trifluoromethyl)quinolin-2-yl)amino)-3-(methyl-d3)-2-oxo-2,3-dihydro-1H-imidazo[4,5-c]pyridin-1-yl)cyclopentyl)carbamate]	> 1000 nM	≤ 10 nM	≤ 10 nM	> 1000 nM
